Active and inactive are the calls of the source. The rule behind the calls is not given here.

Data on two compounds can be found in ChEMBL document CHEMBL4725296, “The novel HOCl fluorescent probe CAN induced A549 apoptosis by inhibiting chlorination activity of MPO” (Bioorg Med Chem Lett, 2020).

Data set [1] relates to RAW264.7. Put plainly: Cytotoxicity against mouse RAW264.7 cells assessed as reduction in cell viability at 5 uM incubated for 12 hrs relative to control. It counts as cell-based. As to conditions: raw264.7, 12 h.
The test system of data set [2] is RAW264.7. Put plainly: Cytotoxicity against mouse RAW264.7 cells assessed as reduction in cell viability at 10 uM incubated for 12 hrs relative to control. It counts as cell-based. The note with it: raw264.7, 12 h.
Data set [3] has as its system A549. Put plainly: Induction of morphological changes in human A549 cells assessed as nuclear condensation at 0.5 to 10 uM incubated for 48 hrs by AO and Hoechst 33258 staining based assay. The format is functional, cell-based. The note with it: dose microM 0.5-10, time 48.0 hrs.
In data set [4] the test system is A549. The data set can be described thus: Antitumor activity against human A549 cells treated chicken chorioallantoic membrane assessed as reduction in tumour mass at 50 to 100 uM measured after 3 to 8 days. As to conditions: dose microM 50-100, time day 3-8. The format is functional, cell-based.
Data set [5] addresses T1, Myeloperoxidase (Homo sapiens) (UniProt P05164).
T1 sequence (whole entry): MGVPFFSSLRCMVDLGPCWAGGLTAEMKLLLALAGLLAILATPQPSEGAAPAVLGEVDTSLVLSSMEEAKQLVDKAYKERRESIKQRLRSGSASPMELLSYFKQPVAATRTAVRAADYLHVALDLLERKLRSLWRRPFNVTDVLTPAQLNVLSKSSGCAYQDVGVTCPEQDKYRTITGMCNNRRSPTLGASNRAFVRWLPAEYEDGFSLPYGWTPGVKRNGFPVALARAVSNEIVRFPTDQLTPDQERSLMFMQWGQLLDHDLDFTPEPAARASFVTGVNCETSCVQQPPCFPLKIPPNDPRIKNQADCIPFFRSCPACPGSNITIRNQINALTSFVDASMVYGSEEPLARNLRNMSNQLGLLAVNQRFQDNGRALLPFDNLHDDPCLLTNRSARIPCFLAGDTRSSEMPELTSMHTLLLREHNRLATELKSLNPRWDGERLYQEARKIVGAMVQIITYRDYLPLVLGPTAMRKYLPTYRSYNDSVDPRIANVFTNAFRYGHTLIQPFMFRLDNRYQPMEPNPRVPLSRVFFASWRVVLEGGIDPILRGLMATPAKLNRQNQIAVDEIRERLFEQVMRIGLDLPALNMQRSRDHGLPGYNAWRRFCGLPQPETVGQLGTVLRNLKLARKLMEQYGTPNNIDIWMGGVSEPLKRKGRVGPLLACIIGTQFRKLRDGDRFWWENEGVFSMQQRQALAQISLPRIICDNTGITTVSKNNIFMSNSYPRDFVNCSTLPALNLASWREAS
The data set can be described thus: Effect on MPO in human A549 cells assessed as reduction in peroxidation activity at 10 uM measured after 3 to 12 hrs by fluorescence assay. It counts as cell-based. The note with it: filed as modulator, time hrs 3-12.

The test system of data set [6] is A549. Put plainly: Induction of morphological changes in human A549 cells assessed as appearance of round shaped cells at 1 uM incubated for 48 hrs. It counts as functional, cell-based.
In data set [7] the test system is RAW264.7. The data set can be described thus: Photostability of compound in mouse RAW264.7 cells at 1 uM measured for 10 to 120 secs. The format is ADME, cell-based. The note with it: raw264.7, 1 µM, time 10-120 sec.
For data set [8], the target named is T1, Myeloperoxidase (Homo sapiens). Put plainly: Effect on MPO in human A549 cells assessed as reduction in chlorination activity at 10 uM measured after 3 to 12 hrs by fluorescence assay. The format is cell-based. The note with it: filed as modulator, time hrs 3-12.
Data set [9] concerns Chorioallantoic membrane. Put plainly: Induction of angiogenesis in chicken chorioallantoic membrane at 50 to 100 uM by CAM assay. Set-up: species or system Gallus gallus. As to conditions: dose 50-100 µM.
Data set [10] deals with HUVEC. The data set can be described thus: Cytotoxicity against HUVEC assessed as reduction in cell viability. The format is cell-based. As to conditions: human.
Data set [11] concerns A549. Put plainly: Induction of apoptosis in human A549 cells assessed as increase in cleaved PARP1 level incubated for 24 hrs by Western blot analysis. It counts as functional, cell-based.
The test system of data set [12] is A549. Put plainly: Antitumor activity against human A549 cells treated chicken chorioallantoic membrane assessed as increase in apoptosis cells in tumour mass at 50 to 100 uM by TUNEL staining based confocal microscopic analysis. As to conditions: dose microM 50-100. The format is functional, cell-based.
A short description of data set [13]: Drug uptake in LPS stimulated mouse RAW264.7 cells assessed as increase in HOCL mediated fluorescence intensity at 1 uM after 1 hr by confocal microscopic analysis. It counts as ADME. As to conditions: raw264.7, 1 h.
In data set [14] the test system is A549. The data set can be described thus: Induction of morphological changes in human A549 cells assessed as nuclear fragmentation at 0.5 to 10 uM incubated for 48 hrs by AO and Hoechst 33258 staining based assay. It counts as functional, cell-based. The note with it: dose microM 0.5-10, time 48.0 hrs.
The subject of data set [15] is A549. The data set can be described thus: Cytotoxicity against human A549 cells assessed as reduction in cell growth at 1 to 10 uM incubated for 24 to 48 hrs. It counts as functional, cell-based. As to conditions: dose microM 1-10, time hrs 24-48.
Data set [16] deals with A549. The data set can be described thus: Induction of necrosis in human A549 cells by LDH assay. The format is functional, cell-based.
Data set [17] relates to RAW264.7. Put plainly: Cytotoxicity against mouse RAW264.7 cells assessed as reduction in cell viability at 1 uM incubated for 12 hrs. The format is cell-based. As to conditions: raw264.7, 12 h.
Data set [18] has as its system A549. Put plainly: Cytotoxicity against human A549 cells assessed as reduction in cell growth incubated for 24 to 48 hrs. The format is functional, cell-based.
Data set [19] deals with Chorioallantoic membrane. The data set can be described thus: Induction of angiogenesis in chicken chorioallantoic membrane at 200 uM by CAM assay. Set-up: species or system Gallus gallus.
Data set [20] relates to A549. Put plainly: Antitumor activity against human A549 cells treated chicken chorioallantoic membrane assessed as reduction in tumour mass at 200 uM measured after 3 to 8 days. The format is functional, cell-based. As to conditions: time day 3-8.
Data set [21] relates to A549. The data set can be described thus: Antitumor activity against human A549 cells treated chicken chorioallantoic membrane assessed as increase in apoptosis cells in tumour mass at 200 uM by TUNEL staining based confocal microscopic analysis. The format is functional, cell-based.

Consider `CCN(CC)c1ccc2cc(C3Nc4cccc5cccc(c45)N3)c(=O)oc2c1`, for which the Activity in [1] is reported as 61%; in data set [2] it was 50.5%; in data set [9] it was “Non-Toxic”; in [10], “Non-Toxic”; in [17] it was “Non-Toxic”; in [19] it was “Non-Toxic”. Besides, the result in data set [3], in data set [4], in data set [5], in data set [6], in data set [8] and in data set [11] was Active. In addition, the outcome in data set [12], in data set [14] and in [15] was Active. For the same compound, the Stabilty entry in data set [7] was “Stable”. The Drug uptake result in data set [13] was “Active”. In addition, in data set [16], the result was inactive. The IC50 in [18] was 4.3 µM.

Consider `O=c1[nH]cc(F)c(=O)[nH]1`, for which the outcome in [20] and in data set [21] was Active.
